What was measured:
DPP1 in HL-60 cells [1] = target: T1, DPP1 in HL-60 cells (Homo sapiens, UniProt P53634); test: DPP1 Cell Single-Point Percent Inhibition Testing; format: cell-based; design: host or cells: HL-60 cells; conditions: final compound concentration 5 nM, n = 1
Procedure: Example 100. DPP1 Cell Single-Point Percent Inhibition Testing
HL-60 cells (ATCC; Manassas, VA) were maintained in RPMI-1640 supplemented with 20% heat-inactivated FBS and 1× Antibiotic Antimycotic (Cytiva; Marlborough, MA). Media was changed every three to four days and cells were not allowed to exceed 1×10^6 cells per mL. Prior to assay, cells were collected by centrifugation at 500 rcf for 3 minutes, resuspended in RPMI (with no additional supplements) and counted. Cells were diluted in RPMI to a concentration of 5×10^5 live cells per mL and transferred to black 96-well plates for assay, 60 μL per well. Test articles were diluted to 25 nM in RPMI plus 0.5% DMSO, and 20 μL was added to each assay well. Compound was allowed to pre-incubate with cells with gentle shaking at 100 rpm for 60 minutes at 37° C. in a cell culture incubator maintained at 5% CO2, after which 20 μL of 500 μM H-Gly-Phe-AFC cell-permeable substrate (MP Biomedicals; Solon, OH) in RPMI was added to each well, giving final compound concentration of 5 nM, a final substrate concentration of 100 μM and a final DMSO concentration of 0.1%. Plates were returned to the incubator with shaking at 100 rpm for 30 minutes, after which fluorescence was measured at Excitation/Emission 400/505 nm. Percent Inhibition was calculated from RFU values by first subtracting background values (wells in which RPMI was substituted for cells) from each well, and then subtracting background-subtracted RFU derived from wells that received a final concentration of 10 μM brensocatib. This value represents the non-specific substrate cleavage from the HL-60 cells, and the remaining RFU should theoretically be solely the contribution of DPP1 enzyme activity. The final percent inhibition value was calculated for each test article based on remaining RFU compared to RFU from wells that received only vehicle control.

human DPP1 enzyme [2] = target: T2, human DPP1 enzyme (Homo sapiens, UniProt P53634); test: Human DPP1 Enzyme Single-Point Percent Inhibition Testing (HL-60 lysate); format: biochemical; design: A crude lysate of HL-60 cells (ATCC; Manassas, VA) was used as a source of human DPP1 enzyme; host or cells: HL-60 cells (crude lysate); conditions: final compound concentration of 10 nM, 400 μM H-Gly-Arg-AMC, n = 1
Procedure: Example 98. Human DPP1 Enzyme Single-Point Percent Inhibition Testing
A crude lysate of HL-60 cells (ATCC; Manassas, VA) was used as a source of human DPP1 enzyme in the assay. Lysate was prepared in 1% Triton X-100 in PBS at a concentration of 20,000 live cells per μL of lysis buffer and was centrifuged at 16,000 rcf for 10 minutes at 4° C., after which supernatant was collected and flash-frozen in liquid nitrogen. Test articles were applied to human DPP1 enzyme in Assay Buffer (25 mM MES pH 6.0, 50 mM NaCl, 5 mM DTT) in a total reaction volume of 125 μL. 25 μL of compound diluted to 50 nM in Assay Buffer plus 5% DMSO was first added to 50 μL of HL-60 lysate diluted to contain a DPP1 enzyme concentration of roughly 1 ng/μL and allowed to pre-incubate for 10 minutes at 37° C. after which 50 μL of 1000 μM H-Gly-Arg-AMC substrate (Bachem; St. Torrance, CA) was added, giving final compound concentration of 10 nM, a final substrate concentration of 400 μM and a final DMSO concentration of 1%. Substrate cleavage was measured for 90 minutes at 37° C., with fluorescence at Excitation/Emission 350/450 nm measured every 5 minutes. DPP1 concentration was interpolated based on its activity relative to a standard curve of activated human recombinant DPP1 enzyme. Percent inhibition at 10 nM was calculated for each test article based on remaining DPP1 activity compared to enzyme activity in wells that received only vehicle control.
Target sequence in this assay (P53634 25-463): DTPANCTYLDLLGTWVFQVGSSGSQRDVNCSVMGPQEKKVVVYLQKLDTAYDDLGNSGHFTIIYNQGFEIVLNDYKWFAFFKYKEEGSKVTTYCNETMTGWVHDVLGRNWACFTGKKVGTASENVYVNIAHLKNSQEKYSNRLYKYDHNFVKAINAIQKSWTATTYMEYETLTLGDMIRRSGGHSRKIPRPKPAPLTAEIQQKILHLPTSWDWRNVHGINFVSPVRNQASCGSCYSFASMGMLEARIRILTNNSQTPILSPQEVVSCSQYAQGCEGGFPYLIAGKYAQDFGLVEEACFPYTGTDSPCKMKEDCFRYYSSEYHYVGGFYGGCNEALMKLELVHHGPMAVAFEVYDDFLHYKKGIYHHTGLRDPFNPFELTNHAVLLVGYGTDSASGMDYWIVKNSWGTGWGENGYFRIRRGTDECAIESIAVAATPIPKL

DPP1 in HL-60 cells [3] = target: T1, DPP1 in HL-60 cells; test: DPP1 Cell IC50 assay; format: cell-based; design: host or cells: HL-60 cells; conditions: 60 min pre-incubation, H-Gly-Phe-AFC substrate, average of n runs, read-out: Avg. IC50 (DPP1 Cell IC50 value ranges)
Summary of the method: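 HL-60 cells in PBS (5×10^5 live cells per mL) pre-incubated with compound (0.5% DMSO) 60 min at 37° C, 5% CO2, then H-Gly-Phe-AFC substrate (500 μM stock) added for 30 min. Fluorescence at 400/505 nm; % inhibition vs vehicle wells, IC50 from four-parameter logistic fit.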

human DPP1 enzyme [4] = target: T2, human DPP1 enzyme; test: Human DPP1 Enzyme IC50 Assay; format: biochemical; design: was first proteolytically processed into its mature form using recombinant human cathepsin L; purchased R&D Systems; conditions: activated recombinant human DPP1, 400 μM H-Gly-Arg-AMC, 10 minutes pre-incubation at 37° C., pH 6.0; average of n runs; read-out: Avg. IC50 (Human DPP1 enzyme IC50 value ranges)
Summary of the method: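 Recombinant human DPP1, pre-activated with cathepsin L (pH 4.5), was preincubated with compound 10 min at 37 °C in MES pH 6.0, 50 mM NaCl, 5 mM DTT, 1% DMSO. Cleavage of 400 μM (final) H-Gly-Arg-AMC followed by fluorescence (350/450 nm) over 90 min at 37 °C; IC50 from four-parameter logistic fit versus no-compound control.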
Target sequence in this assay (P53634 25-134 limits assumed): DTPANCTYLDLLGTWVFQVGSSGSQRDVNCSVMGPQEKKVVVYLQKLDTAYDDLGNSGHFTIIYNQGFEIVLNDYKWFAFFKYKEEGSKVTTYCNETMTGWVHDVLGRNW
Target sequence in this assay (P53634 231-394 limits assumed): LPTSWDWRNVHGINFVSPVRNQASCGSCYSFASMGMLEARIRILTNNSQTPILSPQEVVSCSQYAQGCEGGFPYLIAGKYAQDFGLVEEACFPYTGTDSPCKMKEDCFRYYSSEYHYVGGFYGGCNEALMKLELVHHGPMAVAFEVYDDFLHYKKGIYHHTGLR
Target sequence in this assay (P53634 395-463 limits assumed): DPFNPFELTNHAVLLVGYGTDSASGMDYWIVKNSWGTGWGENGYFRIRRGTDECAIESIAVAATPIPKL

T1 sequence (P53634 25-463): as the sequence (P53634 25-463) above

| Structure (SMILES) | inhibition at 0.005 µM (DPP1 in HL-60 cells [1]) [%] | inhibition at 0.01 µM (human DPP1 enzyme [2]) [%] | IC50 (DPP1 in HL-60 cells [3]) [nM] | IC50 (human DPP1 enzyme [4]) [nM] |
| --- | --- | --- | --- | --- |
| CO[C@H]1CCO[C@H](C(=O)N[C@H](C#N)Cc2ccc(-c3ccc4c(c3)C3(CCN(C)C3)OC4=O)cc2)CNC1 (stereo partly drawn) [Compound F21] | ≤ 76.5 | 40 to 66.7 |  |  |
| CO[C@@H]1CCNC[C@@H](C(=O)N[C@H](C#N)Cc2ccc(-c3cnc4c(n3)CCCC4)cc2)OC1 [Compound A84] | ≤ 76.5 | 40 to 66.7 |  |  |
| Cn1c(=O)oc2ccc3c(c21)COc1cc(CC(C#N)NC(=O)[C@@H]2CNCCCCO2)c(F)cc1-3 (stereo partly drawn) [Compound C26] | ≤ 76.5 | ≤ 40 |  |  |
| Cn1ncc2ccc(-c3ccc(C[C@@H](C#N)NC(=O)[C@@H]4CNCCCCO4)cc3)cc21 [Compound H35] | ≤ 76.5 | ≤ 40 |  |  |
| N#C[C@H](Cc1ccc(-c2cnc3c(n2)CCCC3)cc1)NC(=O)[C@@H]1CNCCCCO1 [Compound A114] | ≤ 76.5 | ≤ 40 |  |  |
| Cn1ncc2ccc(-c3ccc(C[C@@H](C#N)NC(=O)[C@@H]4CNCCCCO4)c(F)c3)cc21 [Compound H37] | ≤ 76.5 | 40 to 66.7 |  |  |
| N#C[C@H](Cc1ccc(-c2ccc3c(c2)C2(CCN(C4CCC4)CC2)OC3)cc1F)NC(=O)[C@@H]1CNCCCCO1 [Compound 44] | ≤ 76.5 | 40 to 66.7 |  |  |
| CN1CCC(n2ncc3ccc(-c4ccc(C[C@@H](C#N)NC(=O)[C@@H]5CNCCCO5)c(F)c4)cc32)CC1 [Compound A144] | ≤ 76.5 | 40 to 66.7 |  |  |
| CO[C@H]1CCO[C@H](C(=O)N[C@H](C#N)Cc2ccc(-c3ccc4nnn(C)c4c3)cc2)CNC1 [Compound H18] | ≤ 76.5 | ≤ 40 |  |  |
| CO[C@@H]1CCNC[C@@H](C(=O)N[C@H](C#N)Cc2ccc(-c3ccc(S(=O)(=O)N4CCC4)cc3)cc2)OC1 [Compound F16] | ≤ 76.5 | ≥ 66.7 |  |  |
| CO[C@H]1CCO[C@H](C(=O)N[C@H](C#N)Cc2ccc(-c3ccc4c(c3)C3(CC4)CCN(C)CC3)cc2)CNC1 [Compound F18] | ≤ 76.5 | ≥ 66.7 |  |  |
| CO[C@@H]1CCNC[C@@H](C(=O)N[C@H](C#N)Cc2ccc(-c3ccc4nnn(C)c4c3)cc2F)OC1 [Compound H8] | ≤ 76.5 | ≥ 66.7 |  |  |
| Cn1c(=O)oc2cc3c(cc21)-c1cc(F)c(CC(C#N)NC(=O)[C@@H]2CNCCCCO2)cc1OC3 (stereo partly drawn) [Compound C25] | 76.5 to 93.9 | ≥ 66.7 |  |  |
| CN1CCCC2(C1)C(=O)N(C)c1ccc(-c3ccc(C[C@@H](C#N)NC(=O)[C@@H]4CNCCCO4)c(F)c3)cc12 (stereo partly drawn) [Compound 48] | ≤ 76.5 | 40 to 66.7 |  |  |
| CO[C@@H]1CCNC[C@@H](C(=O)N[C@H](C#N)Cc2ccc(-c3ccc4c(n3)CCCN4)cc2F)OC1 [Compound A83] | 76.5 to 93.9 | ≥ 66.7 |  |  |
| CO[C@H]1CCO[C@H](C(=O)NC(C#N)Cc2cc3c(cc2F)-c2ccc(F)cc2CO3)CNC1 (stereo partly drawn) [Compound B26] | ≤ 76.5 | 40 to 66.7 |  |  |
| Cn1nnc2ccc(-c3ccc(C[C@@H](C#N)NC(=O)[C@@H]4CNCCCCO4)c(F)c3)cc21 [Compound H38] | ≤ 76.5 | ≤ 40 |  |  |
| CN1CCN(Cc2ccc(-c3ccc(C[C@@H](C#N)NC(=O)[C@@H]4CNCCCCO4)c(F)c3)cc2)CC1 [Compound 45] | ≤ 76.5 | ≤ 40 |  |  |
| N#C[C@H](Cc1ccc(-c2ccn3cnnc3c2)cc1)NC(=O)[C@@H]1CNCCCCO1 [Compound H44] | ≤ 76.5 | ≤ 40 |  |  |
| CO[C@H]1CCO[C@H](C(=O)N[C@H](C#N)Cc2ccc(-c3ccc4c(n3)CCCN4)cc2F)CNC1 [Compound A95] | ≤ 76.5 | 40 to 66.7 |  |  |
| COC1CNC[C@@H](C(=O)N[C@H](C#N)Cc2ccc(-c3ccc4cnn(C5CCN(C)CC5)c4c3)cc2F)OC1 (stereo partly drawn) [Compound H10] | ≤ 76.5 | ≥ 66.7 |  |  |
| CO[C@H]1CCO[C@H](C(=O)N[C@H](C#N)Cc2ccc(-c3cc4c(C)nc(C)cn4c3)cc2F)CNC1 [Compound A48, (2S,6S)—N-[(1S)-1-cyano-2-(4-{1,3-dimethylpyrrolo[1,2-a]pyrazin-7-yl}-2-fluorophenyl)ethyl]-6-methoxy-1,4-oxazocane-2-carboxamide] |  |  | 1 to 2.5 | 5 to 15 |
| Cn1c(=O)oc2ccc3c(c21)COc1cc(CC(C#N)NC(=O)[C@@H]2CNCCCO2)c(F)cc1-3 (mixture of isomers) [Compound C2, (2S)—N-(1-cyano-2-(8-fluoro-3-methyl-2-oxo-3,4-dihydro-2H-benzo[3,4]isochromeno[8,7-d]oxazol-7-yl)ethyl)-1,4-oxazepane-2-carboxamide] |  |  | > 2.5 | > 15 |
| Cc1cn2c3c(cc2c(C)n1)-c1cc(F)c(C[C@@H](C#N)NC(=O)[C@@H]2CNCCCO2)cc1OC3 [Compound C10] |  |  | 1 to 2.5 | > 15 |
| CO[C@H]1CCO[C@H](C(=O)N[C@H](C#N)Cc2ccc(-c3ccc4c(c3)CCC(=O)N4C)cc2F)CNC1 [Compound A153] |  |  | < 1 | < 5 |
| CO[C@H]1CCO[C@H](C(=O)N[C@H](C#N)Cc2ccc(-c3ccc4c(n3)CCCN4)cc2)CNC1 [Compound A43, (2S,6S)—N—((S)-1-cyano-2-(4-(5,6,7,8-tetrahydro-1,5-naphthyridin-2-yl)phenyl)ethyl)-6-methoxy-1,4-oxazocane-2-carboxamide] |  |  | > 2.5 | > 15 |
| Cc1ncc(C)n2cc(-c3ccc(C[C@@H](C#N)NC(=O)[C@@H]4CNCCCO4)cc3)cc12 [Compound A63] |  |  | > 2.5 | > 15 |
| CO[C@@H]1CCNC[C@@H](C(=O)N[C@H](C#N)Cc2ncc(-c3ccc4c(n3)CCCN4)s2)OC1 [Compound A37, (2S,7R)—N—((S)-1-cyano-2-(5-(5,6,7,8-tetrahydro-1,5-naphthyridin-2-yl)thiazol-2-yl)ethyl)-7-methoxy-1,4-oxazocane-2-carboxamide] |  |  | > 2.5 | > 15 |
| Cn1ncc2cc3c(cc21)-c1cc(F)c(C[C@@H](C#N)NC(=O)[C@@H]2CNCCCO2)cc1OC3 [Compound C33] |  |  | 1 to 2.5 | < 5 |
| COC1CNC[C@@H](C(=O)N[C@H](C#N)Cc2ccc(-c3ccc4nnn(C)c4c3)cc2)OC1 (single isomer, unassigned) [Compound H12-A] |  |  | > 2.5 | > 15 |

Source: US20260008760A1, “DIPEPTIDYL PEPTIDASE 1 INHIBITORS AND USES THEREOF” (Insmed Incorporated, priority 2024, published 2026)
